In patent publication US8796302B2 (priority 2004, dated 2014):

Assays:
[1] = system: TH-IR (dopaminergic) neurons in mesencephalic neuron-glia cultures; experiment: TH-IR neuron count and morphology in LPS-treated neuron-glia cultures; format: cell-based, rat; conditions: for dendrite network (immunocytochemical analysis): LPS; for attenuation of LPS-induced reduction in the number of TH-IR neurons: 30 min pretreatment
[2] = system: dopaminergic neurons in rat primary mesencephalic neuron-glia cultures; experiment: DA uptake / TH-IR count in neuron-glia cultures without toxin (spontaneous DA neuronal death, neurotrophic effect); format: cell-based
Method: In Example 23, [^3H]DA uptake assay and immunohistochemical analysis for TH-IR neurons were used to assess the viability of DA neurons in rat primary mesencephalic neuron-glia cultures in which approximately 1% of the neurons are dopaminergic. [^3H]DA uptake assays were performed as described in Example 1.
Rat primary mesencephalic neuron-glia cultures were prepared from the ventral mesencephalic tissues of embryonic day 13-14 Fisher 344 rats. Dissociated cells were seeded at a density of 5×10^5/well to poly-D-lysine-precoated 24-well plates. Cells were maintained at 37° C. in a humidified atmosphere of 5% CO2 and 95% air, in minimal essential medium containing 10% fetal bovine serum (FBS), 10% horse serum, 1 gm/l glucose, 2 mM L-glutamine, 1 mM sodium pyruvate, 100 μM non-essential amino acids, 50 U/ml penicillin, and 50 μg/ml streptomycin. Unless otherwise indicated, seven-day-old cultures were used for treatment.
Seven days after seeding, each well was treated with indicated concentration of VPA or its vehicle. Seven days after treatment, the viability of dopaminergic neurons was assessed by [^3H]DA uptake assays. Quantified results are expressed as mean±SEM of percentage of vehicle-treated cultures from three experiments performed in duplicate. *, p<0.05 compared with the corresponding vehicle-treated control cultures.
Next, the rat primary mesencephalic neuron-glia cultures were treated with 0.6 mM VPA for various times to determine the treatment time-dependency. Rat primary mesencephalic neuron-glia cultures in a 24-well plate were treated with 0.6 mM VPA or its vehicle for indicated time 7 days after seeding. The viability of dopaminergic neurons was assessed by [^3H]DA uptake assays, shown in FIG. 37 or counting of TH-IR neurons, shown in FIG. 38. Quantified results are expressed as mean±SEM of percentage of vehicle-treated control cultures from three experiments performed in duplicate. *, p<0.05 compared with the corresponding vehicle-treated control cultures. […] VPA time-dependently induces survival-promoting effects against spontaneous DA neuronal death in rat primary mesencephalic neuron-glia cultures.
Rat primary mesencephalic neuron-glia cultures seeded in a 24-well culture plate at density of 5×10^5 per well were treated with indicated concentrations of sodium butyrate or its vehicle 7 days after seeding. The viability of dopaminergic neurons was assessed by DA uptake assays 7 days after sodium butyrate addition.
Mesencephalic neuron-glia cultures, prepared as described above, were pretreated with vehicle or 3-HM (1-5 μM) before the treatment of LPS (10 ng/ml). Seven days later, the degeneration of dopaminergic neurons was determined by the functional assay of [^3H]DA uptake and by the morphometric measurement of dopaminergic neurons following immunostaining with an anti-TH antibody. [^3H]DA and immunostaining are performed as described above.

[3] = system: dopaminergic neurons in mesencephalic neuron-enriched cultures; experiment: [3H]DA uptake in neuron-enriched cultures (direct, conditioned media, reconstituted); format: cell-based, rat; conditions: for DA uptake with 3-HM-treated astroglia conditioned media: 24 h conditioning, % of non-conditioned control, vehicle conditioned 122%
Method: Mixed-glia cultures were first prepared from brains of 1-day-old Fisher 344 rat pups, as described previously (Liu, et al. 2001). Mechanically dissociated brain cells (5×10^7) were seeded onto 150 cm^2 culture flasks in Dulbecco's modified Eagle's medium containing 10% heat-inactivated FBS, 2 mM L-glutamine, 1 mM sodium pyruvate, 100 μM non-essential amino acids, 50 U/ml penicillin, and 50 μg/ml streptomycin. The cultures were maintained at 37° C. in a humidified atmosphere of 5% CO2 and 95% air, and medium was replenished 4 days after the initial seeding. Upon reaching confluence (usually 12-14 days later), microglia were detached from astroglia by shaking the flasks for 5 hours at 180 rpm. Astroglia were then detached with trypsin-EDTA and seeded in the same culture medium. After five or more consecutive passages, cells were seeded onto 24-well plates (10^5/well) for experiments. Immunocytochemical staining of the astroglia enriched cultures with either anti-GFAP or anti-OX-42 antibody indicated astroglial purity of greater than 98% and less than 2% of microglia contamination.
Conditioned medium derived from rat primary astroglial cultures treated with vehicle (ACM) or 0.6 mM VPA (ACM-VPA) were harvested after 12, 24 and 48 hours of incubation. Midbrain neuron-enriched cultures seeded in 24-well plates at a density of 5×10^5 cells/well were treated with vehicle, VPA, ACM or ACM-VPA for 7 days. Neurotrophic effect was quantified by [^3H]DA uptake assay.
Rat mesencephalic neuron-enriched cultures are prepared from dissociated ventral mesencephalic cells from embryonic day 13-14 Fisher 344 rats were seeded first at a density of 5×10^5/well to poly-D-lysine-precoated 24-well culture plates. […] Three days later, the culture medium was replaced with the maintenance medium. Routinely, the seven-day-old neuron-enriched cultures were used for treatment. […] Of the Neu-N immunoractive neurons, 2.7-3.9% was TH-IR neurons.
To explore whether astroglial cells are also the main target of sodium butyrate-induced neurotrophic effect, we prepared media conditioned by incubation of astroglial cultures in the absence or presence 0.6 mM sodium butyrate. Conditioned medium derived from rat primary astroglial cultures treated with vehicle (ACM) or 0.6 mM sodium butyrate (ACM-Sodium butyrate) were harvested after 48 hours of incubation. Midbrain neuron-enriched cultures seeded in 24-well plates at a density of 5×10^5 cells/well were treated with vehicle, sodium butyrate, ACM or ACM-Sodium butyrate for 7 days. Seven days after treatment, neurotrophic effect for dopaminergic neurons was assessed by [^3H]DA uptake assays.
Various concentrations of 3-HM (0.1-5 μM) or vehicle were added to the following different cell cultures: neuron-enriched cultures (A); reconstituted cultures by adding 10% and 20% (5×10^4/well and 1×10^5/well) of microglia to the neuron-enriched cultures (B); reconstituted cultures by adding 40% and 50% (2×10^5/well and 2.5×10^5/well) of astroglia to the neuron-enriched cultures (C). Cultures are prepared as described in Example 25. The [^3H]DA uptake measurements were performed […] after treatment. Results were expressed as a percentage of the vehicle-treated control cultures and were the mean±SE from five (A) and four (B,C) independent experiments in triplicate. *P<0.05 and **P, 0.001 compared with the vehicle-treated control cultures. #P<0.05 compared with the augmented cultures with 40% astroglia. N, neuron-enriched cultures; N+10% (20%) MG: 10% (20%) of microglia were added back to the neuron-enriched cultures; N+40% (50%) AS: 40% (50%) of astroglia were added back to the neuron-enriched cultures.
To confirm the possible role of astroglia in the neurotrophic effect of 3-HM, conditioned media from astroglia-enriched cultures (prepared as described above) treated with either 3-HM (1-5 μM) or vehicle for 24 hours were prepared. […]

[4] = system: dopaminergic neurons in rat primary mesencephalic neuron-glia cultures; experiment: [3H]DA uptake in LPS-treated mesencephalic neuron-glia cultures; format: cell-based; conditions: for DA uptake, post-treatment with DM: LPS 20 ng/ml 12 h then removed

## Oc1ccc2c(c1)[C@@]13CCCC[C@H]1[C@@H](C2)NCC3 [3-HM, 3-hydroxymorphinan]
[1]; 3-HM 5 μM pretreatment, LPS 10 ng/ml, LPS alone reduced by 51%
  number of dopaminergic neurons: 97 % of the vehicle-treated control cultures
[1]; 3-HM pretreatment, LPS 10 ng/ml, LPS alone 43%
  average length of dopaminergic neuronal neurites: 110 % of the vehicle-treated control cultures
[2]; 3-HM 1-5 μM alone, 7 days
  increase of DA uptake capacity vs vehicle-treated control: 20-60%
[2]
  neurotrophic effect of compound alone in neuron-glia cultures: significant neurotrophic effect
[3]; 3-HM 1 μM, 10 days
  DA uptake with 3-HM-treated astroglia conditioned media: 151.3%
[3]; 3-HM 2.5 μM, 10 days
  DA uptake with 3-HM-treated astroglia conditioned media: 160.9%
[3]; 3-HM 5 μM, 10 days
  DA uptake with 3-HM-treated astroglia conditioned media: 197.8%
[3]; 3-HM 0.1-5 μM, 10 days
  DA uptake capacity in neuron-enriched cultures: failed to show a significant increase in the DA uptake capacity
[3]; 10% or 20% of microglia added back, 3-HM-treated, 10 days
  DA uptake, neuron-enriched cultures + microglia: failed to increase DA uptake
[3]; 40% of astroglia added back, 3-HM-treated, 10 days
  capacity of DA uptake, neuron-enriched cultures + astroglia: 135.8%
[3]; 50% of astroglia added back, 3-HM-treated, 10 days
  capacity of DA uptake, neuron-enriched cultures + astroglia: 158.3%
[4]; 3-HM 5 μM, LPS 10 ng/ml, 7 days
  LPS-induced decrease in DA uptake: almost back to the vehicle-treated control values

## COc1ccc2c(c1)[C@@]13CCCC[C@H]1[C@@H](C2)N(C)CC3 [DM, d-3-methoxy-N-methylmorphinan]
[1]; DM 10^−5 M and 10^−14 M
  dendrite network (immunocytochemical analysis): more elaborate dendrite network
[1]; DM 10^−5 M, LPS 10 ng/ml
  attenuation of LPS-induced reduction in the number of TH-IR neurons: 37%
[1]; DM 10^−10 M
  dendrite network (immunocytochemical analysis): failed to show improvement
[1]; DM 10^−10 M, LPS 10 ng/ml
  dopaminergic neuron degeneration (TH-IR neuron number): no protective effects
[1]; DM 10^−14 M, LPS 10 ng/ml
  attenuation of LPS-induced reduction in the number of TH-IR neurons: 28%
[2]
  neurotrophic effect of compound alone in neuron-glia cultures: not observed
[3]; DM 5 μM, vs vehicle-treated conditioned cultures
  neurotrophic effect of DM-treated astroglia conditioned media: failed to exhibit any neurotrophic effect
[4]; DM 10^−13 and 10^−14 M, 30 min pretreatment, LPS 10 ng/ml, 7 days
  LPS-induced decrease in [3H]-dopamine uptake: equipotent neuroprotective effect
[4]; DM 10^−5 and 10^−14 M post-treatment
  DA uptake, post-treatment with DM: showed a protective effect
[4]; DM 10^−10 M post-treatment
  DA uptake, post-treatment with DM: but not at 10^−10 M

## CCCC(CCC)C(=O)O [VPA, Valproic acid]
[1]; VPA 0.6 mM alone
  DA neuron morphology (anti-TH), VPA alone: promoted neurite formation and inter-neuronal networks
[1]; VPA 0.6 mM, alone or with LPS, vs vehicle control
  TH immunostaining in cell bodies and neuronal processes: enhanced the TH immunostaining
[1]; VPA 0.2-0.6 mM pretreatment, LPS 20 ng/ml
  LPS-induced decrease of TH-ir neurons and loss of neuronal process (morphology): reversed by VPA pretreatment in a dose-dependent manner
[1]; VPA 0.2 to 0.6 mM, 48 hours pretreatment, LPS 10 ng/ml, 7 days
  LPS-induced morphological changes of DA neurons: prevented by VPA pretreatment
[1]; VPA pretreatment 48 h, significant effect at 0.2, 0.4 and 0.6 mM, LPS 20 ng/ml 72 h
  LPS-induced loss of TH-ir neurons: prevented by VPA pretreatment in a concentration-dependent manner
[2]; VPA 0.6 mM for 7 days
  capacity of [3H]DA uptake vs vehicle-treated control: marked increase
  number of TH-IR neurons vs vehicle-treated control: marked increase
[2]; VPA 0.6 mM, 7 days
  spontaneous DA neuronal death (DA uptake): significantly protected DA neurons from spontaneous neuronal death
[3]; neuron-enriched cultures, 7 days, drug 0.6 mM or conditioned medium
  increase in DA uptake: less than 2 fold
[4]; VPA 0.6 mM alone, no LPS
  DA uptake levels, VPA alone: did not affect DA uptake levels
[4]; VPA 0.6 mM, 6 hours pretreatment, LPS 10 ng/ml
  neuroprotection against LPS neurotoxicity (DA uptake): failed to induce a significant effect
[4]; VPA 0.6 mM, 12 hours pretreatment, LPS 10 ng/ml
  neuroprotection against LPS neurotoxicity (DA uptake): complete neuroprotection
[4]; VPA 0.6 mM, 48 hours pretreatment, LPS 10 ng/ml
  neuroprotection against LPS neurotoxicity (DA uptake): further increase in DA uptake levels
[4]; VPA 0.6 mM, 48 h pretreatment, LPS 20 ng/ml
  LPS-induced decrease in DA uptake: completely restored
[4]; VPA 0.6 mM, alone or with LPS 10 ng/ml
  DA uptake levels vs untreated control: significantly higher than those in the untreated control
[4]; VPA 0.05-0.6 mM, 48 h pretreatment, LPS 20 ng/ml 3 days
  LPS-induced reduction of DA uptake: concentration-dependently prevented
[4]; VPA various doses, 48 hours pretreatment, LPS 10 ng/ml 5 days
  LPS-induced loss of DA uptake capacity: robustly blocked
